Laboratory results reported in the supplement of paper PMC13207355.

Key:
Settings in all cases: exposure time: 72 h
[1] = system: E31 (patient-derived glioblastoma stem cells of proneural subtype); assay: surviving fraction (nuclei count normalised to DMSO); higher = more cells surviving (less toxic)
[2] = system: E21 (patient-derived glioblastoma stem cells of mesenchymal subtype); assay: as above
[3] = system: E13 (patient-derived glioblastoma stem cells of classical subtype); assay: as above
[4] = system: E28 (patient-derived glioblastoma stem cells of classical subtype); assay: as above
[5] = system: FT3469 (normal neural stem cell line); assay: as above
[6] = system: E34 (patient-derived glioblastoma stem cells of proneural subtype); assay: as above
[7] = system: E57 (patient-derived glioblastoma stem cells of mesenchymal subtype); assay: as above
[8] = system: E31; assay: phenotypic distance (Euclidean, principal components) from DMSO controls (arbitrary units); higher = stronger morphological change
[9] = system: E21; assay: as above
[10] = system: E13; assay: as above
[11] = system: E28; assay: as above
[12] = system: FT3469; assay: as above
[13] = system: E34; assay: as above
[14] = system: E57; assay: as above
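For phenotypic distance (Euclidean, principal components) from DMSO controls in this document: cell Painting imaging in 384-well plates, CellProfiler features reduced to at least 20 principal components, Euclidean distance versus same-plate DMSO vehicle wells (0.1% v/v), median over six images per well.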
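For surviving fraction (nuclei count normalised to DMSO) in this document: nuclei counted by high-content imaging of Hoechst-stained cells in laminin-coated 384-well plates, relative to 0.1% DMSO vehicle wells, with staurosporine as cell-death control.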

Oc1c(Cl)cc(Cl)c(Cl)c1Cc1c(O)c(Cl)cc(Cl)c1Cl [Hexachlorophene]
Settings | phenotypic distance | surviving fraction
[1], 4.1 nM | – | 0.956
[1], 12.3 nM | – | 0.937
[1], 37 nM | – | 1.03
[1], 111.1 nM | – | 0.964
[1], 333.3 nM | – | 1.03
[1], 1000 nM | – | 1.18
[1], 3000 nM | – | 0.648
[2], 4.1 nM | – | 0.928
[2], 12.3 nM | – | 0.925
[2], 37 nM | – | 0.965
[2], 111.1 nM | – | 0.903
[2], 333.3 nM | – | 0.964
[2], 1000 nM | – | 0.762
[2], 3000 nM | – | 0.552
[3], 4.1 nM | – | 0.829
[3], 12.3 nM | – | 0.908
[3], 37 nM | – | 0.957
[3], 111.1 nM | – | 0.796
[3], 333.3 nM | – | 0.826
[3], 1000 nM | – | 0.68
[3], 3000 nM | – | 0.367
[4], 4.1 nM | – | 0.954
[4], 12.3 nM | – | 1.03
[4], 37 nM | – | 1.04
[4], 111.1 nM | – | 0.884
[4], 333.3 nM | – | 1.04
[4], 1000 nM | – | 0.839
[4], 3000 nM | – | 0.748
[5], 4.1 nM | – | 0.963
[5], 12.3 nM | – | 0.887
[5], 37 nM | – | 1.07
[5], 111.1 nM | – | 0.895
[5], 333.3 nM | – | 0.922
[5], 1000 nM | – | 0.792
[5], 3000 nM | – | 0.648
[6], 4.1 nM | – | 0.818
[6], 12.3 nM | – | 0.897
[6], 37 nM | – | 1
[6], 111.1 nM | – | 0.845
[6], 333.3 nM | – | 0.754
[6], 1000 nM | – | 0.721
[6], 3000 nM | – | 0.448
[7], 4.1 nM | – | 0.988
[7], 12.3 nM | – | 1.11
[7], 37 nM | – | 0.949
[7], 111.1 nM | – | 0.977
[7], 333.3 nM | – | 0.908
[7], 1000 nM | – | 0.776
[7], 3000 nM | – | 0.396
[8], 4.1 nM | 0.745 | –
[8], 12.3 nM | 0.7 | –
[8], 37 nM | 0.853 | –
[8], 111.1 nM | 0.867 | –
[8], 333.3 nM | 1.39 | –
[8], 1000 nM | 1.83 | –
[8], 3000 nM | 3.79 | –
[9], 4.1 nM | 1 | –
[9], 12.3 nM | 0.629 | –
[9], 37 nM | 1.26 | –
[9], 111.1 nM | 0.988 | –
[9], 333.3 nM | 1.51 | –
[9], 1000 nM | 2.2 | –
[9], 3000 nM | 4.77 | –
[10], 4.1 nM | 0.81 | –
[10], 12.3 nM | 0.795 | –
[10], 37 nM | 3 | –
[10], 111.1 nM | 0.903 | –
[10], 333.3 nM | 3.34 | –
[10], 1000 nM | 1.8 | –
[10], 3000 nM | 3.77 | –
[11], 4.1 nM | 1.12 | –
[11], 12.3 nM | 0.421 | –
[11], 37 nM | 0.961 | –
[11], 111.1 nM | 0.709 | –
[11], 333.3 nM | 0.784 | –
[11], 1000 nM | 1.11 | –
[11], 3000 nM | 1.45 | –
[12], 4.1 nM | 0.687 | –
[12], 12.3 nM | 1.29 | –
[12], 37 nM | 0.725 | –
[12], 111.1 nM | 0.625 | –
[12], 333.3 nM | 1.47 | –
[12], 1000 nM | 1.56 | –
[12], 3000 nM | 2.68 | –
[13], 4.1 nM | 0.861 | –
[13], 12.3 nM | 0.839 | –
[13], 37 nM | 0.672 | –
[13], 111.1 nM | 0.741 | –
[13], 333.3 nM | 1.14 | –
[13], 1000 nM | 2.31 | –
[13], 3000 nM | 3.14 | –
[14], 4.1 nM | 0.958 | –
[14], 12.3 nM | 0.865 | –
[14], 37 nM | 1 | –
[14], 111.1 nM | 1.03 | –
[14], 333.3 nM | 2.28 | –
[14], 1000 nM | 3.09 | –
[14], 3000 nM | 6.18 | –
